For 10 compounds, TGI and GI50 results are on record in PubChem BioAssay (NCI).

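Dose response: 5 concentrations. Exposure: 48 h. Format: 96-well plates. Endpoint: linear interpolation; highest concentration if not reached. GI50 = concentration required for 50% inhibition of growth. The concentration for full growth arrest is given as TGI.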 A value given as a limit tells only on which side of the number the result lay.

Among the test systems are NCI-H522 lung; MDA-MB-231 breast; NCI/ADR-RES ovarian; SF-539 CNS; DU-145 prostate; KM12 colon; SNB-75 CNS; A549 NSCLC; ACHN renal; TK-10 renal.
What all share (assay): DTP human tumour cell line panel, 48 h

A word on the TGI: it is the concentration giving total growth inhibition. Higher therefore signals lower sensitivity of the cells. As to `COc1cc(N(C)C)c(OC)cc1/C=C\c1ccnc2ccccc12`, the TGI in the test on NCI-H522 lung is above 10 µM; with MDA-MB-231 breast, above 10 µM; in the test on NCI/ADR-RES ovarian, 7.66 µM; in the test with SF-539 CNS it was 6.48 µM; in the test on DU-145 prostate it was above 10 µM; in the test on KM12 colon, above 10 µM. Also, the TGI with SNB-75 CNS is 9.62 µM; in the test with A549 NSCLC, above 10 µM; with ACHN renal, above 10 µM; in the test on TK-10 renal, above 10 µM.

As a reminder, the GI50 is the concentration at which growth is held to half of that of the control. Consider `CCN(CC)CCCNCc1cc(-c2ccccc2)nc2ccccc12`, for which the GI50 in the test on NCI-H522 lung is 15.9 µM; in the test on MDA-MB-231 breast, 3.99 µM; with NCI/ADR-RES ovarian, 2.35 µM; with SF-539 CNS, 3.24 µM; in the test on DU-145 prostate it was 21.2 µM; with KM12 colon it was 15 µM. In addition, the GI50 with SNB-75 CNS is 12.3 µM; in the test on A549 NSCLC, 81.6 µM; in the test with ACHN renal it was 33.3 µM; in the test with TK-10 renal, 5.09 µM. The TGI was 52.3 µM with NCI-H522 lung; 24 µM in the test with MDA-MB-231 breast; 6.51 µM with NCI/ADR-RES ovarian; 8.49 µM with SF-539 CNS; above 100 µM in the test with DU-145 prostate; above 100 µM in the test on KM12 colon. Also, the TGI is 35.8 µM with SNB-75 CNS, above 100 µM in the test with A549 NSCLC, above 100 µM with ACHN renal and 31.8 µM with TK-10 renal.

For the compound `COC(=O)c1cc(O)c2cc3c(cc2c1-c1cc(OC)c(OC)c(OC)c1)OCO3`, the 50% growth inhibitory concentration (GI50) was 0.272 µM in the test with NCI-H522 lung; 1.5 µM with MDA-MB-231 breast; 0.462 µM with NCI/ADR-RES ovarian; 3.34 µM in the test with SF-539 CNS; 2.16 µM with DU-145 prostate; 0.503 µM in the test with KM12 colon. Moreover, the GI50 was 1.37 µM in the test with SNB-75 CNS, 0.762 µM in the test on A549 NSCLC, 2.59 µM with ACHN renal and 2.16 µM in the test with TK-10 renal. For the same compound, the concentration for total growth inhibition (TGI) is 1.13 µM with NCI-H522 lung; above 100 µM with MDA-MB-231 breast; above 100 µM with NCI/ADR-RES ovarian; above 100 µM with SF-539 CNS; above 100 µM in the test with DU-145 prostate; above 100 µM in the test on KM12 colon. For the same compound, the TGI with SNB-75 CNS is 32 µM; with A549 NSCLC, above 100 µM; in the test on ACHN renal it was above 100 µM; in the test with TK-10 renal, above 100 µM.

With `NCC1OC(n2cnc3c(N)ncnc32)CC1O` (stereo not drawn), the TGI in the test with NCI-H522 lung, in the test on MDA-MB-231 breast, in the test on NCI/ADR-RES ovarian, in the test on SF-539 CNS, in the test with DU-145 prostate and in the test on KM12 colon was above 100 µM each time. Further, the total growth inhibition concentration (TGI) in the test on SNB-75 CNS, in the test with A549 NSCLC, with ACHN renal and in the test on TK-10 renal was above 100 µM in each case.

On to `Oc1ccc(C(c2ccc(O)cc2)c2ccc(O)cc2)cc1`, for which the TGI in the test with NCI-H522 lung turned out to be 32.9 µM; with MDA-MB-231 breast it was 41.8 µM; in the test with NCI/ADR-RES ovarian, 44.2 µM; in the test on SF-539 CNS it was 46 µM; with DU-145 prostate, 81.6 µM; in the test with KM12 colon, 32.4 µM. The TGI was above 100 µM with A549 NSCLC, 90.8 µM in the test on ACHN renal and 63.4 µM in the test on TK-10 renal.

In the case of `S=C(Nc1ccc(-c2nc3ccccc3[nH]2)cc1)Nc1ccc(-c2nc3ccccc3[nH]2)cc1`, the GI50 in the test with NCI-H522 lung is 24.5 µM; in the test with MDA-MB-231 breast, 41.8 µM; with NCI/ADR-RES ovarian it was 66.9 µM; in the test on SF-539 CNS, above 100 µM; in the test on DU-145 prostate, above 100 µM; in the test with KM12 colon, 43.5 µM. The GI50 with A549 NSCLC is above 100 µM; in the test with ACHN renal, above 100 µM; in the test on TK-10 renal, 32.4 µM. Also, the TGI with NCI-H522 lung was 99.4 µM; in the test with MDA-MB-231 breast it was above 100 µM; in the test with NCI/ADR-RES ovarian, above 100 µM; in the test on SF-539 CNS it was above 100 µM; in the test on DU-145 prostate it was above 100 µM; in the test on KM12 colon it was above 100 µM. Besides, the TGI with A549 NSCLC, with ACHN renal and in the test on TK-10 renal was above 100 µM each time.

As for `C[n+]1c2cc(N)ccc2cc2ccc(N)cc21`, the GI50 was 917 nM [middle of 4 runs] in the test with NCI-H522 lung; 1.41 µM [middle of 4 runs] with MDA-MB-231 breast; 2.72 µM [middle of 4 runs] in the test with NCI/ADR-RES ovarian; 1.33 µM [middle of 4 runs] in the test on SF-539 CNS; 1.36 µM [middle of 4 runs] in the test with DU-145 prostate; 1.55 µM [middle of 4 runs] in the test with SNB-75 CNS. Further, the 50% growth inhibitory concentration (GI50) was 256 nM [middle of 4 runs] in the test on A549 NSCLC, 1 µM [middle of 4 runs] in the test on ACHN renal and 1.43 µM [middle of 4 runs] in the test on TK-10 renal. Further, the TGI is 3.68 µM [middle of 4 runs] with NCI-H522 lung; 9.68 µM [middle of 4 runs] with MDA-MB-231 breast; 3.69 µM [middle of 4 runs] in the test on SF-539 CNS; 5.57 µM [middle of 4 runs] in the test with DU-145 prostate; 4.05 µM [middle of 4 runs] with SNB-75 CNS; 9.33 µM [middle of 4 runs] in the test on TK-10 renal.

As for `CCN(CC)c1ccc(C(O)C2=CC(=O)c3ccccc3C2=O)cc1` (stereo not drawn), the GI50 is 1.79 µM with NCI-H522 lung; 1.53 µM with MDA-MB-231 breast; above 32.9 µM in the test with NCI/ADR-RES ovarian; 2 µM with SF-539 CNS; 1.85 µM with DU-145 prostate; 1.87 µM in the test with SNB-75 CNS. Also, the GI50 in the test on A549 NSCLC is 4.4 µM; in the test with ACHN renal it was 1.75 µM; in the test on TK-10 renal, 1.51 µM. For the same compound, the total growth inhibition concentration (TGI) was 4.19 µM with NCI-H522 lung; 4.61 µM in the test with MDA-MB-231 breast; above 100 µM in the test with NCI/ADR-RES ovarian; 4.18 µM in the test on SF-539 CNS; 4.27 µM in the test with DU-145 prostate; 5.57 µM in the test on SNB-75 CNS. Further, the TGI in the test with A549 NSCLC worked out at 30.9 µM; in the test on ACHN renal, 4.6 µM; in the test with TK-10 renal, 3.16 µM.

Regarding `COc1ccc2ccccc2c1C1NC(=O)c2ccccc2N1` (stereo not drawn), the TGI in the test with NCI-H522 lung is above 25.6 µM; in the test on MDA-MB-231 breast it was above 41.8 µM; in the test on NCI/ADR-RES ovarian it was 3.02 µM; in the test with SF-539 CNS, 5.78 µM; in the test on DU-145 prostate, above 25.2 µM; in the test on KM12 colon, 19.9 µM. Moreover, the total growth inhibition concentration (TGI) with A549 NSCLC was above 51.8 µM; in the test on ACHN renal, above 84.5 µM; in the test with TK-10 renal, above 100 µM.

With `O=c1[nH]c(=S)[nH]c2c1CN(CCCN1CCOCC1)CN2`, the TGI in the test on NCI-H522 lung was 52.3 µM; with MDA-MB-231 breast, 66.4 µM; with NCI/ADR-RES ovarian it was above 100 µM; in the test on SF-539 CNS, 58.2 µM; with DU-145 prostate it was above 100 µM; in the test with KM12 colon, 95.9 µM. Besides, the results for the total growth inhibition concentration (TGI) with A549 NSCLC, in the test with ACHN renal and in the test with TK-10 renal were above 100 µM, 92 µM and above 100 µM, respectively.
